US12398143B2, “Imidazopyrazine derivatives and the use thereof as medicament” (Boehringer Ingelheim International GmbH, priority 2019, dated 2025)

Legend:
[1] = target: T1, NMDA NR1/NR2B receptor (Homo sapiens, UniProt Q05586+Q13224); test: NMDA NR1/NR2B FLIPR calcium assay in HEK293 cells; type: cell-based; conditions: HEK293 with tetracyclin-inducible NR1/NR2B; 20 μM glycine/1 μM glutamate; compounds of the invention; read-out: IC50 (in vitro affinity as obtained in the FLIPR assay)
T1 construct: host or cells: HEK293, tetracycline-inducible
Experimental: A human HEK293 cell line with tetracyclin-inducible expression of NMDA NR1/NR2B receptor was used as a test system for compound efficacy and potency. The cell line was purchased from ChanTest, Catalog #CT6121. Compound activity was determined by measuring the effect of compounds on intracellular calcium concentration induced by glycine/glutamate agonism in a FLIPRtetra system (Molecular Devices).
The cells were obtained as frozen cells in cryo-vials and stored until use at −150° C. Cells were grown in culture medium (DMEM/F12, 10% FBS, 5 μg/mL Blasticidin, 150 μg/mL Zeozin, 500 μg/mL Geneticin). […] For sub-culturing the cells were detached from flasks by Versene. For the assay, cells were detached, washed twice with induction medium (DMEM/F12 without glutamine, 10% FBS, 2 μg/mL Tetracycline, 2 mM Ketamine) and seeded to 384 well pure coat amine plates (BD 359324, 50000 cells per well in 50 μl) 48 h prior to assay in induction medium.
The test compounds were dissolved in 100% DMSO at a concentration of 10 mM and in a first step diluted in DMSO to a concentration of 5 mM, followed by serial dilution steps in 100% DMSO. Dilution factor and number of dilution steps may vary according to needs. Typically 8 different concentrations by 1:5 dilutions were prepared in duplicate, further intermediate dilutions (1:37.5) of the substances were carried out with aqueous assay buffer (137 mM NaCl, 4 mM KCl, 1.8 mM CaCl, 10 mM HEPES, 10 mM Glucose, pH 7,4) resulting in a compound concentration 3 times above the final test concentration and DMSO at 2.7% resulting in 0.9% final DMSO concentration in the assay.
At the assay day cells were washed 3× with assay buffer, 10 μL buffer remained in the wells after washing. 10 μL Ca kit loading buffer (AAT Bioquest) was added to the cells and the plates were incubated with lid for 60 minutes at r.t. 20 μl assay buffer containing 60 μM glycine (20 μM final) and 3 μM glutamate (1 μM final) was added to column 1-23. Fluorescence (indicating the calcium influx as a result of the NR1/NR2B ion channel activation) was read on the FLIPRtetra device for 60 seconds to monitor the glutamate induced effects. After 2 minutes 20 μL of compound or controls (row 1-22) in assay buffer were carefully added to the wells. […] The average of 2 measurements at 5 minutes and 5 min 10 seconds after compound addition is calculated and further used for IC50 calculations. Each assay microtiter plate contained wells (in column 23 or 24) with DMSO controls instead of compound as controls for glycine/glutamate induced fluorescence (high controls) and wells with 1 μM of a reference NR2b NAM as low controls (Compound 22; reference: Layton, Mark E et al, ACS Chemical Neuroscience 2011, 2(7), 352-362).
The output file of the reader contains the well number and measured average fluorescence units. For data evaluation and calculation, the measurement of the low control was set as 0% control and the measurement of the high control was set as 100% control. The IC50 values were calculated using the standard 4 parameter logistic regression formula. Calculation: [y=(a−d)/(1+(x/c)^B)+d], a=low value, d=high value; x=conc M; c=IC50 M; b=slope.

[2] = Metabolic stability in human liver microsomes; type: in vitro ADME; conditions: pooled human liver microsomes, pH 7.6, 37° C., 1 mg/mL microsomal protein, 1 μM compound, NADPH 1 mM, read-out: Half-life - t½ human liver microsomes
Text: Stability in human liver microsomes refers to the susceptibility of compounds to bio-transformation in the context of selecting and/or designing drugs with favorable pharmacokinetic properties. The primary site of metabolism for many drugs is the liver. Human liver microsomes contain the cytochrome P450s (CYPs), and thus represent a model system for studying drug metabolization in vitro. Enhanced stability in human liver microsomes is associated with several advantages, including increased bioavailability and adequate half-life, which can enable lower and less frequent dosing of patients. Thus, enhanced stability in human liver microsomes is a favorable characteristic for compounds that are to be used for drugs.
The metabolic degradation of the test compound was assayed at 37° C. with pooled human liver microsomes. The final incubation volume of […] per time point contains TRIS buffer pH 7.6 at room temperature (0.1 M), magnesium chloride (5 mM aqueous solution), microsomal protein (1 mg/mL for human) and the test compound at a final concentration of 1 μM. Following a short preincubation period at 37° C., the reactions were initiated by addition of betanicotinamide adenine dinucleotide phosphate, reduced form (NADPH, 1 mM), and terminated by transferring an aliquot into solvent after different time points. After centrifugation (10000 g, 5 min), an aliquot of the supernatant was assayed by LC-MS/MS for the amount of parent compound. The half-life was determined by the slope of the semi-logarithmic plot of the concentration-time profile.

[3] = target: T2, human MDR1 (P-gp) (Homo sapiens, UniProt P08183); test: MDCK assay MDR-1 (p-GP) permeability; type: in vitro ADME; conditions: dog, MDCK-MDR1 monolayers; for efflux ratio at 2 h: pH 7.4, Papp (b-a)/Papp (a-b); for Papp A→B at 2 h: apical-to-basal, pH 7.4, 1 or 10 μM
T2 construct: expressed in transfected cells; host or cells: MDCKII (Madin-Darby canine kidney)
Experimental: The MDCK assays provide information on the potential of a compound to pass the blood brain barrier. Permeability measurements across polarized, confluent MDCK-MDR1 cell monolayers grown on permeable filter supports are used as an in vitro absorption model: apparent permeability coefficients (PE) of the compounds across the MDCK-MDR1 cell monolayers are measured (pH 7.4, 37° C.) in apical-to-basal (AB) and basal-to-apical (BA) transport direction. The AB permeability (PEAB) represents drug absorption from the blood into the brain and the BA permeability (PEBA) drug efflux from the brain back into the blood via both, passive permeability as well as active transport mechanisms mediated by efflux and uptake transporters that are expressed on the MDCK-MDR1 cells, predominantly by the overexpressed human MDR1. Identical or similar permeabilities in both transport directions indicate passive permeation, vectorial permeability points to additional active transport mechanisms. Higher PEBA than PEAB (PEBA/PEAB>5) indicates the involvement of active efflux mediated by MDR1, which might compromise the goal to achieve sufficient brain exposure. Therefore, this assay provides valuable support for selection of compounds applicable for further in vivo testing. High permeability not limited by efflux at the blood brain barrier is a favourable characteristic for compounds that are to be used for drugs acting primarily in the CNS. Consequently, to ensure high permeability at the blood brain barrier, it is highly preferred to minimize the efflux (efflux<5) at MDR1 transporter.
Apparent permeability coefficients (Papp) of the compounds across the MDCK-MDR1 monolayers (MDCKII cells transfected with human MDR1 cDNA expression plasmid) are measured in apical-to-basal (AB) and basal-to-apical (BA) direction.
MDCK-MDR1 cells (6×10^5 cells/cm^2) are seeded on filter inserts (Corning, Transwell, polycarbonate, 0.4 μm pore size) and cultured for 9 to 10 days. Compounds dissolved in DMSO stock solution (1-20 mM) are diluted with HTP-4 aqueous buffer (128.13 mM NaCl, 5.36 mM KCl, 1 mM MgSO4, 1.8 mM CaCl2), 4.17 mM NaHCO3, 1.19 mM Na2HPO4, 0.41 mM NaH2PO4, 15 mM HEPES, 20 mM glucose, pH 7.4) supplemented with 0.25% BSA to prepare the transport solutions (final concentration: 1 or 10 μM, final DMSO <=0.5%). The transport solution is applied to the apical or basolateral donor side for measuring A-B or B-A permeability, respectively. The receiver side contains HTP-4 buffer supplemented with 0.25% BSA. Samples are collected at the start and end of experiment from the donor and at various time intervals for up to 2 hours also from the receiver side for concentration measurement by HPLC-MS/MS.
Sampled receiver volumes are replaced with fresh receiver solution. Efflux ratio is calculated dividing the Papp (b-a) values by the Papp (a-b) values.

T1 sequence (Q13224 27-1484, other chains not shown): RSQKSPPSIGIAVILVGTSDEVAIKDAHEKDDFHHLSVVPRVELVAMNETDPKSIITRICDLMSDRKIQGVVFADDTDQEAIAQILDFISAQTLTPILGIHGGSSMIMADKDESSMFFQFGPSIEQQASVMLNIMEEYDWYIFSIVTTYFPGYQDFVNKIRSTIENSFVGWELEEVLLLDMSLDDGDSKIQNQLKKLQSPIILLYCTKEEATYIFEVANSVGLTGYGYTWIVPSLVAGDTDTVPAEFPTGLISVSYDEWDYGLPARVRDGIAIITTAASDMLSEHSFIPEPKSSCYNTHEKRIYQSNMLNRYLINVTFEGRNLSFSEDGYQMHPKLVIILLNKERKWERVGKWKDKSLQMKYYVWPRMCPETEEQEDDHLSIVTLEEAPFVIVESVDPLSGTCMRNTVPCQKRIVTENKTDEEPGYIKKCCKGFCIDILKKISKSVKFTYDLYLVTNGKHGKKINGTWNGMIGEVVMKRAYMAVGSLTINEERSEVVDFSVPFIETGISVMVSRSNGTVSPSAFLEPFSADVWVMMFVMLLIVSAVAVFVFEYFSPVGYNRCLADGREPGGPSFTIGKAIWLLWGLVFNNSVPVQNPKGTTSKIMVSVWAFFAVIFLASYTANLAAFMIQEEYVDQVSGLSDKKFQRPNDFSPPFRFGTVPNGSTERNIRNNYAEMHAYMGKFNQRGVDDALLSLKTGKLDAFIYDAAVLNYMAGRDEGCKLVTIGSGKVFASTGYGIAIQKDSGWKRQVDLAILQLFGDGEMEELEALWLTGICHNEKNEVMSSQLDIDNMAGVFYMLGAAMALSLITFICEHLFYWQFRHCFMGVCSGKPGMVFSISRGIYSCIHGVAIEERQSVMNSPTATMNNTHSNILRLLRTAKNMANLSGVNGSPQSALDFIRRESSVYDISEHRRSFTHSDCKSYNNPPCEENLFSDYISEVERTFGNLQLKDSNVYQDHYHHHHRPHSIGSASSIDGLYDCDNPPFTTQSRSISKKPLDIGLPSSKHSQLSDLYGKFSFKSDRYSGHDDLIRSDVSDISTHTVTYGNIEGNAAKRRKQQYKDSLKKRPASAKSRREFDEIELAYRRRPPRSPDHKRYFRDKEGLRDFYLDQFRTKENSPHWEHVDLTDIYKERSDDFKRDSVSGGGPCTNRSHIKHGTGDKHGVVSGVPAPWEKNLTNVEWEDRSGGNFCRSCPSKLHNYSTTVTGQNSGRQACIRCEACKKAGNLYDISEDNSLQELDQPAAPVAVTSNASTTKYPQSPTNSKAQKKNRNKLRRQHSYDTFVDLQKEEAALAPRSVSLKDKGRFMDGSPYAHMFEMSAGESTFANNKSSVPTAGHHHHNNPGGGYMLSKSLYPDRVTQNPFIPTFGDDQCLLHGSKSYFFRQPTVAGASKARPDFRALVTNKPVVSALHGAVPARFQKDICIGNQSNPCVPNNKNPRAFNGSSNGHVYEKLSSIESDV
T2 sequence (P08183 whole entry): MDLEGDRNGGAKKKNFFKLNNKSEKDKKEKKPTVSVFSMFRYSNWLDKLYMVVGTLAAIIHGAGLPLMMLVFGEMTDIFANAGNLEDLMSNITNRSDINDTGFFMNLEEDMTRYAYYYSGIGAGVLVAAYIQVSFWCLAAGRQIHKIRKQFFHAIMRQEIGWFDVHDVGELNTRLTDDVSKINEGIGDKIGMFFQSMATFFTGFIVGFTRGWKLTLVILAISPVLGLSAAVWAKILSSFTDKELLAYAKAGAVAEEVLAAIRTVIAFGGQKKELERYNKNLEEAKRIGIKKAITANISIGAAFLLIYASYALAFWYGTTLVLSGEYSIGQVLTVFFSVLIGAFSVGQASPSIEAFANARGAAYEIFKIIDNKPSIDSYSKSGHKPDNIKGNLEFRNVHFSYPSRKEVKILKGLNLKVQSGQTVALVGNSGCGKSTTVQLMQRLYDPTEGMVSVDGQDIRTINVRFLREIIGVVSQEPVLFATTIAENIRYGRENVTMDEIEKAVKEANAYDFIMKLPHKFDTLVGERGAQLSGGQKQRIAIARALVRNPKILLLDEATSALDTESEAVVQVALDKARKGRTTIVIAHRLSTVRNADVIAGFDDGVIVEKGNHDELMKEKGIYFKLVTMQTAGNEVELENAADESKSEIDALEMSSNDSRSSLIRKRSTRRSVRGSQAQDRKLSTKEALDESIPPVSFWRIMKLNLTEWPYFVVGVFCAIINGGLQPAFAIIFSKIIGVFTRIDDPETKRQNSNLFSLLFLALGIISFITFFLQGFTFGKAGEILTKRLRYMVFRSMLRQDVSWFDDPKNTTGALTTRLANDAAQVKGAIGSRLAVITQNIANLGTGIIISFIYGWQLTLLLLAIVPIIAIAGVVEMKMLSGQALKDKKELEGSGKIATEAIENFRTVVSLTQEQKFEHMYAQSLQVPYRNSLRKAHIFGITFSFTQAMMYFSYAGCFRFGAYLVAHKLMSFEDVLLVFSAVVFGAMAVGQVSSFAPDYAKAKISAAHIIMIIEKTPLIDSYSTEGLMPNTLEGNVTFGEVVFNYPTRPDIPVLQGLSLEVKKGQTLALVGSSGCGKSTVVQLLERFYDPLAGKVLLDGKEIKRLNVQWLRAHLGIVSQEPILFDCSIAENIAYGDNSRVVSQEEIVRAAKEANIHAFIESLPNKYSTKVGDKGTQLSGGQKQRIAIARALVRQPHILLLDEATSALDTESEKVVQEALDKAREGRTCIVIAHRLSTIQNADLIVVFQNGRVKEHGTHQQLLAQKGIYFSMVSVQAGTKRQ

In the case of `Cc1cccc(COC(=O)N2CCO[C@H](c3nc4nccnc4[nH]3)C2)c1F` [Example 3], the IC50 [1] is reported as 725 nM, the half-life at 1 μM [2] is reported as 8 min and the efflux ratio at 2 h [3] is reported as 0.7. The Papp A→B at 2 h [3] was 61 ×10⁻⁶ cm/s.

In the case of `Cc1ccc(COC(=O)N2CCO[C@H](c3nc4nccnc4[nH]3)C2)c(F)c1` [Example 1], the IC50 [1] is reported as 90 nM, the half-life at 1 μM [2] is reported as 31.5 min and the efflux ratio at 2 h [3] is reported as 1.6. For the same compound, the Papp A→B at 2 h [3] was 33 ×10⁻⁶ cm/s.

Work on `O=C(OCc1ccc(F)cc1)N1CCO[C@H](c2nc3nccnc3[nH]2)C1` [Example 10] yielded an IC50 [1] of 735 nM, a half-life at 1 μM [2] of over 130 min and an efflux ratio at 2 h [3] of 2.9. The Papp A→B at 2 h [3] was 23 ×10⁻⁶ cm/s.

`O=C(OCc1ccc(F)cc1F)N1CCO[C@H](c2nc3nccnc3[nH]2)C1` [Example 5] showed an IC50 [1] of 477 nM, a half-life at 1 μM [2] of over 130 min and an efflux ratio at 2 h [3] of 1.4. For the same compound, the Papp A→B at 2 h [3] was 40 ×10⁻⁶ cm/s.

In the case of `O=C(OCc1ccccc1F)N1CCO[C@H](c2nc3nccnc3[nH]2)C1` [Example 4], the IC50 [1] is reported as 382 nM, the half-life at 1 μM [2] is reported as over 130 min and the efflux ratio at 2 h [3] is reported as 0.8. The Papp A→B at 2 h [3] was 57 ×10⁻⁶ cm/s.

Compound `Cc1ccc(COC(=O)N2CCO[C@H](c3nc4nccnc4[nH]3)C2)cc1` [Example 12] has an IC50 [1] of 210 nM, a half-life at 1 μM [2] of 36 min and an efflux ratio at 2 h [3] of 1.8. The Papp A→B at 2 h [3] was 31 ×10⁻⁶ cm/s.
